# Source: patent US9511047B2, “Delphinidin for combating melanoma cells” (priority 2012, dated 2016)
# Experiments:
# [1] = tested on: human melanoma cell line A-375; assay: Induction of apoptosis, sub-G1 peak method (Examples 6 and 9); format: cell-based; conditions: A-375, 24 hours; for Induction of apoptosis (sub-G1 peak): 10-3000 μg/ml delphinidin-SBE-β-CD or 15-120 μM delphinidin Cl, low and higher cell confluence (FIGS. 2a, 2b)
# A-375 cells [2] = assay: Real-time cell analysis of cell number and proliferation, xCELLigence system (Examples 8 and 11); format: cell-based, human
# [3] = tested on: human melanoma cell line A-375; assay: Cell viability test, WST-1 assay (Examples 7 and 10); format: cell-based; conditions: A-375, 24 hours; for Cell viability (WST-1 assay): 10-3000 μg/ml delphinidin-SBE-β-CD or 15-120 μM delphinidin Cl, low and higher cell confluence (FIGS. 3a, 3b)
# [4] = Stability trials in aqueous solution, 0.9% NaCl, 37° C. (Example 5); format: physicochemical; conditions: 0.9% NaCl solution, dark
# Method: To determine the delphinidin chloride content in the delphinidin-containing solutions, a reversed-phase HPLC method was used similar to the one already described above. The following reagents were used in this case: […] The solutions were prepared at room temperature and subsequently stored in the dark at 37° C. in closed vials. […] The table below gives the content determined as a percentage of the starting concentration stated above.
# [5] = Solubility of delphinidin chloride in aqueous cyclodextrin solutions (Example 1); format: physicochemical; conditions: pure water, cyclodextrin concentration 0; stirred 30° C. 20 h in the dark, filtered 0.22 μm
# [6] = tested on: human dermal microvascular endothelial cells; assay: Cell vitality, ATP luminescence assay, endothelial cells (Example 12); format: cell-based; conditions: 0.1-100 μM (0.1; 3.2; 100 μM); Day 1-Day 4 (FIG. 18)
# From the text: The human dermal microvascular endothelial cells were obtained by the standard method known to those skilled in the art of Hewett and Murray (1993) [Hewett P. W. and Murray J. C. (1993) Immunomagnetic purification of human microvessel endothelial cells using Dynabeads coated monoclonal antibodies to PECAM-1. Eur J Cell Biol 62: 451-454; Hewett P. W. & Murray J. C. (1993) Human microvessel endothelial cells: Isolation, culture and characterization. In Vitro Cell Biol: 823-830].
# A-375 cells [7] = assay: Microscopic analysis of cell morphology after 24 hours of treatment; conditions: A-375, 24 hours of treatment, high concentrations (FIG. 4)
compound,measurement,setting,value
sulfobutyl ether β-cyclodextrin [SBE-β-CD],Induction of apoptosis (sub-G1 peak),[1],no effect
same,"Induction of apoptosis (sub-G1 peak), Example 9",[1]; complex partner as control (FIG. 11b),at control level
same,Intensification of TRAIL sensitivity (real-time cell monitoring),"A-375 cells [2]; A-375, high cell confluence, SBE-β-CD 30 or 1000 μg/ml with TRAIL 0.02 μg/ml (FIGS. 16 and 17)",No intensification of TRAIL sensitivity
same,Cell viability (WST-1 assay),[3],no effect
same,"Cell vitality, Example 10",[3]; complex partner as control (FIG. 12b),at control level
"Oc1cc(O)c2cc(O)c(-c3cc(O)c(O)c(O)c3)[o+]c2c1.[Cl-] [delphinidin Cl, delphinidin chloride]",Induction of apoptosis (sub-G1 peak),[1],significant dose-dependent induction of apoptosis
same,Delphinidin content as a percentage of the starting concentration,"[4]; 0 h, start 1.584 mg/ml (complex) or 0.0216 mg/ml (delphinidin)",100%
same,Delphinidin content as a percentage of the starting concentration,[4]; 1 h,8.3%
same,Delphinidin content as a percentage of the starting concentration,[4]; 2 h,6.5%
same,Delphinidin content as a percentage of the starting concentration,[4]; 3 h,5.6%
same,Delphinidin content as a percentage of the starting concentration,[4]; 4 h,5.1%
same,"Delphinidin chloride, solubility achievable",[5],70 µg/mL
same,Cytotoxic effects on endothelial cells (vitality),[6],no significant cytotoxic effects
same,Concentration at which similarly strong antiproliferative effects are seen,"A-375 cells [2]; A-375, high and low cell confluence (FIGS. 7 and 8)",60 to 120 µM
same,Cell viability (WST-1 assay),[3],loss of vital cells with increasing dose
same,Morphology of the cells under microscopic analysis,A-375 cells [7],become globular and/or detached
